Assay results published in PubChem BioAssay AID1626 (SRMLSC, 2009).

Tested on: M. tuberculosis H37Rv growth inhibition
Experiment: M. tuberculosis H37Rv growth inhibitors, H37Rv strain (AID 1626)
Details: for IC90: measured here: IC90 against H37Rv; for CC50: measured here: Vero cell cytotoxicity

Compound | IC50 [µM] | IC90 [µM] | CC50 [µM]
CCc1cc2cc(C(=O)Nc3ccc(C)cc3)sc2s1 | 1.34 | 1.81 | –
CCOC(=O)c1ccc(NC(=O)Cc2coc3cc4c(cc23)CCC4)cc1 | 6.36 | > 100 | > 40
Cc1cccc(Nc2nnc(SCC(=O)Nc3cccnc3Cl)s2)c1 | 2.34 | 8.03 | –
CCOC(=O)c1cnc(-n2nc(C)cc2C)nc1Nc1ccc(OC)cc1 | 0.641 | 1.27 | –
O=C(c1ccc(F)cc1)C(CN1CCOCC1)c1ccccc1 (centres undefined) | 6.14 | 7.01 | 20.7
Cc1nc2ccc(NC(=O)c3ccc(Br)o3)cc2s1 | 64.2 | > 100 | –
O=C(O)c1ccc(Nc2nc(-c3cc4ccccc4oc3=O)cs2)cc1O | 20.1 | > 100 | –
CCc1nc(N2CCCC(C)C2)c2oc3ccccc3c2n1 (centres undefined) | 17 | 23.8 | > 40
O=C(CSc1ncnc2c1oc1ccccc12)OCc1ccccc1 | 7.79 | 26.8 | –
CCCCOc1ccc(NC(=O)CSc2nnnn2C)cc1 | 34 | > 100 | –
CC(C)(C)c1ccc(OC(=O)c2ccc3snnc3c2)cc1 | 5.94 | > 100 | –
CC(C)(C)C(=O)/C=C/Nc1ccccc1O | 2.55 | 3.93 | > 40
Cc1csc(NC(=O)CSc2ccc(-c3ccccn3)nn2)n1 | 5.48 | 6.15 | > 40
COc1ccc(S(=O)(=O)Oc2ccc3c(c2)O/C(=C\c2cccnc2)C3=O)cc1 | 2.34 | 19.4 | –
CCOc1ccc2nc(NC(=O)CSC3=NCCS3)sc2c1 | – | > 100 | –
CCOC(=O)c1ccc(NC(=O)c2cc3c(s2)CCC3)cc1 | 4.74 | > 100 | –
COc1cccc(/C=C2\Sc3ccc(C(=O)NCc4cccnc4)cc3N(C)C2=O)c1 | 2.83 | 6.21 | > 40
Cc1ccc(NC(=O)CNCc2ccccc2)cc1Br | 32.3 | > 100 | –
O=C(NCc1nc(-c2ccc(C(F)(F)F)cc2)no1)Nc1cc(Cl)cc(Cl)c1 | 5.74 | 10.6 | 12.6
c1ccc(-c2ccc3c(c2)c2c4n3CCN=C4CCC2)cc1 | 10.7 | 14.9 | 24.7
CCOc1cc(CNC(C)(C)CO)cc(Br)c1OCc1ccc(Cl)cc1Cl | 11.4 | 12.3 | 12.7

Compound | IC50 [µM] | IC90 [µM] | CC50 [µM]
CCC(C)NC(=O)c1c(N)n(/N=C/c2ccccn2)c2nc3ccccc3nc12 (centres undefined) | 5.18 | 7.46 | > 40
O=C(CSc1nnc(-c2cccs2)o1)OC1CCCCC1 | 2.23 | 7.65 | –
Cc1ccc(CSc2nnc(CCCCCNC(=O)OC(C)(C)C)o2)cc1 | 11.7 | 13.6 | –
O=C(CSc1ccccn1)Nc1ccc2c(c1)oc1ccccc12 | < 0.195 | > 100 | –
COc1cc(CNCCc2c[nH]c3ccccc23)ccc1OCc1ccccc1F | 14 | 21.3 | 15.1
COCCn1nnnc1C(c1cc2cc(OC)ccc2[nH]c1=O)N1CCC(Cc2ccccc2)CC1 (centres undefined) | 7.52 | 15.8 | –
CCc1ccccc1NC(=O)c1cccc(NC(=O)/C=C/c2ccco2)c1 | – | – | > 40
O=C(O)/C=C/C(=O)Nc1ccc(-n2nccc2C(F)(F)F)cc1 | – | > 100 | –
O=C(Nc1ccc(N2CCOCC2)c(Cl)c1)c1ccc([N+](=O)[O-])o1 | 7.54 | 11.3 | 3.3
O=C(Nc1nc2ccccc2[nH]1)c1cccc([N+](=O)[O-])c1 | – | > 100 | –
CCCN(CC1CC1)C(=O)COC(=O)c1ccc2c(c1)C(=O)N(c1ccc(OCC)cc1)C2=O | – | > 100 | –
CCOC(=O)c1ccccc1-n1c(C)cc(C2N=C(N)Nc3nc4ccccc4n32)c1C (centres undefined) | 11.5 | 13.7 | –
Cc1c(Cc2ccccc2)c(NCCCO)n2c(nc3ccccc32)c1C#N | 2.9 | 3.35 | –
Cn1c(-c2c(N)n(CCc3ccccc3)c3nc4ccccc4nc23)nc2ccccc21 | 1.83 | 28.4 | 35.1
Clc1ccc2c(c1)C(c1ccccc1Cl)=NCc1nnc(N3CCN(CCOc4ccccc4)CC3)n1-2 | 12.5 | 16.7 | > 40
O=C(Nc1ccc(F)c(Cl)c1)Nc1csc2ccccc12 | 54.9 | > 100 | 7.06
Clc1ccc2nc(-c3ccccn3)c(Nc3ccc4c(c3)OCO4)n2c1 | 2.56 | 4.43 | 11.1
NC1=NC[C@H](CC2CCCCC2)N1CCc1cc(C(F)(F)F)cc(C(F)(F)F)c1 | 8.62 | 11 | 27.4
Cc1ccc(-c2nn(-c3ccccc3)cc2NC(=O)CCl)cc1 | 29.6 | > 100 | 27.1
CC1(C)C2CCC1(C)C(NC(=O)/C=C/c1ccccc1)C2 (centres undefined) | < 0.195 | 18.1 | > 40
COc1cccc(-c2csc(N3CCN(C(=O)NC45CC6CC(CC(C6)C4)C5)CC3)n2)c1 | 1.09 | 1.92 | > 40
